{"source": "patent US11260118B2", "about": "“Immunogenic peptide composition” (Cancer Research Malaysia, priority 2017, dated 2022)", "key": {"[1]": {"system": "target cells 195M (MAGED4B) and C666.1F (FJX1)", "description": "The cytotoxic ELISPOT assay was used to study the response of peptide-pulsed CTLs derived from the patients to target cell lines overexpressing the target antigens. CTLs were co-cultured with target cells, where this culture was re-suspended in complete culture media supplemented with IL-7 and interleukin 2 (IL-2) proteins and applied to IFNγ and granzyme B ELISPOT plates. The cell suspension was further incubated to allow the interaction between CTLs and target cell line before determining the potential killing ability of CTLs against FJX1 and MAGED4b expressing target cells.\nDendritic cells from patients were isolated and subsequently used as antigen presenting cells. Briefly, PBMCs were re-suspended in macrophage-serum free media (M-SFM) (Gibco, Thermo Fisher, MA, USA), seeded in a 6-well plate and incubated for 1 hour at 37° C. After incubation, non-adherent cells from PBMCs were collected, rinsed in HBSS and then re-suspended in complete culture media contained 10 ng/ml IL-7. Approximately 2-5×10^5 cells per well were seeded into round bottom 96-well plates. Cells were then incubated for 2-5 days at 37° C. for T cell expansion with the addition of 50 μg/ml of peptides. The adherent cells resulting from the incubation, were cultured at 37° C. for 2-5 days in M-SFM in the presence of 100 ng/ml GM-CSF and 25 ng/ml IL-4 to induce differentiation of dendritic cells (DCs). […]"}, "[2]": {"system": "mouse macrophage cell line RAW264.7"}, "HNSCC": {"system": "HNSCC", "details": "cited from earlier work"}, "[3]": {"system": "recurrent or metastatic HNSCC", "details": "human, in vivo; cited from earlier work"}}, "note": "Where no end group is shown, it is not given here."}
{"substance": "SLYNTYATL [HIV peptide]", "values": [{"measurement": "IFNγ and granzyme B secretion / cytotoxic T cell response after in vitro peptide stimulation", "setting": "[1]", "value": "induces increased levels of IFNγ and Granzyme B secretion"}]}
{"substance": "WLLALGSLLAL [F1, WLLALGSLLAL]", "values": [{"measurement": "degree of inflammation / iNOS accumulation", "setting": "[2]", "value": "low"}, {"measurement": "production of nitrite, fold lower than LPS positive control", "setting": "[2]", "value": 10, "unit": "fold"}]}
{"substance": "nivolumab", "values": [{"measurement": "overall survival rate of HNSCC patients", "setting": "HNSCC; 16% in standard therapy group", "value": 36, "unit": "%"}, {"measurement": "grade 3 or grade 4 events versus standard therapy", "setting": "HNSCC; human, in vivo", "value": "fewer grade 3 or grade 4 events"}, {"measurement": "response rate of HNSCC patients", "setting": "HNSCC; human, in vivo", "value": 13, "unit": "%"}, {"measurement": "survival longer than standard therapy group", "setting": "HNSCC; human, in vivo", "value": 2.4, "unit": "months"}]}
{"substance": "pembrolizumab", "values": [{"measurement": "objective response rate (complete or partial response of tumour size reduction)", "setting": "[3]", "value": 16, "unit": "%"}]}
{"substance": "RLSLLLVIL [M6]", "values": [{"measurement": "degree of inflammation / iNOS accumulation", "setting": "[2]", "value": "low"}]}
